{"source": "paper PMC7413254", "about": "(Nature Communications, 2020)", "key": {"[1]": {"tested_on": "non-expressing oocytes", "test": "cells", "assay_type": "cell-based, Xenopus laevis", "conditions": "non-expressing oocytes, total [3H]CQ transport, normalised to the oocyte type control", "procedure,_shortened": "(§1)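 Each treatment used ten oocytes, repeated in at least four experiments on different days with oocytes from different frogs. Conditions: ND96 pH 5.5, 27.5 °C, 1.5 h; read-out by scintillation counting.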"}, "[2]": {"target": "T1, PfCRT^3D7 (Plasmodium falciparum, UniProt Q8IBZ9)", "T1 sequence (Q8IBZ9 59-398)": "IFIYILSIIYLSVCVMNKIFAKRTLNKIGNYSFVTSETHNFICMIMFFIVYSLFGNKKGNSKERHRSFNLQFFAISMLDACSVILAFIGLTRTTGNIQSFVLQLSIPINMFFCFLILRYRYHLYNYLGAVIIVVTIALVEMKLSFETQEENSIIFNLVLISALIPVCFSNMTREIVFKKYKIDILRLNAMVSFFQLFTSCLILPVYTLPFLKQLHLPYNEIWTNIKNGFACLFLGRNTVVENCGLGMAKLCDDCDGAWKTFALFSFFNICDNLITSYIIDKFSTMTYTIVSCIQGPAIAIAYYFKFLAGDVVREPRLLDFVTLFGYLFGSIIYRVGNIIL", "test": "cell-based", "assay_type": "cell-based", "conditions": "PfCRT3D7 oocytes, total [3H]CQ transport, normalised to the oocyte type control", "procedure,_shortened": "as §1"}, "[3]": {"target": "T2, PfCRT^Dd2 (Plasmodium falciparum, UniProt Q9N623, A220S/I356T/K76T/M74I/N326S/N75E/Q271E/R371I)", "T2 sequence (Q9N623 whole entry A220S/I356T/K76T/M74I/N326S/N75E/Q271E/R371I)": "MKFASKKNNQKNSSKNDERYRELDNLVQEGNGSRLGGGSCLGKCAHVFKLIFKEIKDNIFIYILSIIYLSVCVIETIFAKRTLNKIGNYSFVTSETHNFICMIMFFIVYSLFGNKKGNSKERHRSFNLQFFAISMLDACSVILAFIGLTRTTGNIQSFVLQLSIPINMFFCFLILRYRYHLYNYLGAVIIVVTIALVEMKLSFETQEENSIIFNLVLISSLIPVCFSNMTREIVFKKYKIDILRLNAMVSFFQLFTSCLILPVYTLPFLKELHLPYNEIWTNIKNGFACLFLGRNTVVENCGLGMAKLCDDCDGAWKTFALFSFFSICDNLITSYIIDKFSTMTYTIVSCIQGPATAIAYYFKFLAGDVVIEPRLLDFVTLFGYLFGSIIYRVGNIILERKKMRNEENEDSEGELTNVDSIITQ", "test": "[3H]CQ uptake into Xenopus oocytes, cis-inhibition by unlabelled solute", "assay_type": "cell-based", "conditions": "PfCRTDd2 oocytes, background [3H]CQ accumulation subtracted, normalised to oocyte type control", "procedure,_shortened": "as §1"}, "[4]": {"target": "T3, PfCRT^Ecu1110 (Plasmodium falciparum, UniProt Q9N623, A220S/I356L/K76T/N326D)", "T3 sequence (Q9N623 whole entry A220S/I356L/K76T/N326D)": "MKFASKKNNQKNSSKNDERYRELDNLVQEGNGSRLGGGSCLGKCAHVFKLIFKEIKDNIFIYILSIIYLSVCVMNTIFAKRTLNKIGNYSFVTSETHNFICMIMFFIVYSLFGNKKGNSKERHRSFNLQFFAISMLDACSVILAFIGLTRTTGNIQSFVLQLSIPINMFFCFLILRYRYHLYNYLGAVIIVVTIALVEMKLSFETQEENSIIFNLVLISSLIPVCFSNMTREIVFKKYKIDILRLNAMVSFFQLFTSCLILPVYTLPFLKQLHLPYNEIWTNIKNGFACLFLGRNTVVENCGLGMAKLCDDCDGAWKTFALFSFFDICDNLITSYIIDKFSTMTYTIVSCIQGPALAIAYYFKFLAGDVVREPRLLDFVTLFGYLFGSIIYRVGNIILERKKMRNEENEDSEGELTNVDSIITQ", "test": "[3H]CQ uptake into Xenopus oocytes, cis-inhibition by unlabelled solute", "assay_type": "cell-based", "conditions": "for Uptake of [3H]CQ (% PfCRTEcu1110 control), cis-inhibition / PfCRT-mediated [3H]CQ transport, cis-inhibition (% PfCRTEcu1110 control): PfCRTEcu1110 oocytes; for Uptake of [3H]CQ (% PfCRTEcu1110 control), cis-inhibition: total [3H]CQ transport, normalised to the oocyte type control; for PfCRT-mediated [3H]CQ transport, cis-inhibition (% PfCRTEcu1110 control): background [3H]CQ accumulation subtracted, normalised to oocyte type control; for [3H]CQ transport (% PfCRTEcu1110 control), cis-inhibition, PfCRTEcu1110: PfCRT-mediated component (background subtracted), sheet title says normalised to PfCRTDd2 control, mean ± SEM, SEM", "procedure,_shortened": "as §1"}, "[5]": {"tested_on": "non-expressing oocytes", "assay_type": "cell-based, Xenopus laevis", "conditions": "non-expressing oocytes, total [3H]CQ transport, normalised to the oocyte type control", "procedure,_shortened": "(§2)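 Oocytes (ten per treatment, ≥4 independent frogs/days) were preloaded by injecting VF-6 in 25 nL ND96 at pH 5.0, 5.5, 6.0 or 7.0, or Na^+-free choline buffer, then uptake run 1.5 h, 27.5 °C, ND96 pH 5.5 by default. Internal concentrations assumed ~400 nL oocyte volume.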"}, "[6]": {"target": "T1, PfCRT^3D7", "test": "cell-based", "assay_type": "cell-based", "conditions": "for Uptake of [3H]CQ (% PfCRT3D7 control), trans-stimulation / PfCRT-mediated [3H]CQ transport, trans-stimulation (% PfCRT3D7 control): PfCRT3D7 oocytes; for Uptake of [3H]CQ (% PfCRT3D7 control), trans-stimulation: total [3H]CQ transport, normalised to the oocyte type control; for PfCRT-mediated [3H]CQ transport, trans-stimulation (% PfCRT3D7 control): normalised to oocyte type control", "procedure,_shortened": "as §2"}, "[7]": {"target": "T2, PfCRT^Dd2", "test": "cell-based", "assay_type": "cell-based", "conditions": "for Uptake of [3H]CQ (% PfCRTDd2 control), trans-stimulation / PfCRT-mediated [3H]CQ transport, trans-stimulation (% PfCRTDd2 control): PfCRTDd2 oocytes; for Uptake of [3H]CQ (% PfCRTDd2 control), trans-stimulation: total [3H]CQ transport, normalised to the oocyte type control; for PfCRT-mediated [3H]CQ transport, trans-stimulation (% PfCRTDd2 control): normalised to oocyte type control; for [3H]CQ transport (% PfCRTDd2 control), trans-stimulation, PfCRTDd2: PfCRT-mediated component (background subtracted), mean ± SEM, SEM", "procedure,_shortened": "as §2"}, "[8]": {"target": "T3, PfCRT^Ecu1110", "test": "cell-based", "assay_type": "cell-based", "conditions": "for Uptake of [3H]CQ (% PfCRTEcu1110 control), trans-stimulation / PfCRT-mediated [3H]CQ transport, trans-stimulation (% PfCRTEcu1110 control): PfCRTEcu1110 oocytes; for Uptake of [3H]CQ (% PfCRTEcu1110 control), trans-stimulation: total [3H]CQ transport, normalised to the oocyte type control; for PfCRT-mediated [3H]CQ transport, trans-stimulation (% PfCRTEcu1110 control): normalised to oocyte type control; for [3H]CQ transport (% PfCRTDd2 control), trans-stimulation, PfCRTEcu1110: PfCRT-mediated component (background subtracted), sheet title says normalised to PfCRTDd2 control, mean ± SEM, SEM", "procedure,_shortened": "as §2"}, "[9]": {"target": "T4, PfNT1 (Plasmodium falciparum, UniProt Q8IDM6)", "T4 construct": "expressed in transfected cells; host or cells: Xenopus laevis oocytes (stage V-VI), cRNA-injected", "T4 sequence (Q8IDM6 whole entry)": "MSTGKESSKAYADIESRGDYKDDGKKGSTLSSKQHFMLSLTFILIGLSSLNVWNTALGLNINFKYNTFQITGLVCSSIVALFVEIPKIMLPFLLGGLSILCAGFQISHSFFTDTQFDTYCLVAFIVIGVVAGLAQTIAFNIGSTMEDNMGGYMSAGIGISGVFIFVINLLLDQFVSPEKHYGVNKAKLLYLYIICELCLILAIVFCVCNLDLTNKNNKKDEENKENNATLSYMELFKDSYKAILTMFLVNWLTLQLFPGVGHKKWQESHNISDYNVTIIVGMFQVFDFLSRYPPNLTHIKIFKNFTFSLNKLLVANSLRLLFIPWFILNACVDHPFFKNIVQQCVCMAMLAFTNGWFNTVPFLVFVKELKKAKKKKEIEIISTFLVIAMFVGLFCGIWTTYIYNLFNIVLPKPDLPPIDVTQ", "test": "cell-based", "assay_type": "cell-based", "conditions": "PfNT1 oocytes, total [3H]CQ transport, normalised to the oocyte type control", "procedure,_shortened": "as §2"}, "[10]": {"conditions": "[test solute]i = 45 mM (30 mM for some solutes due to solubility)"}, "[11]": {"conditions": "[test solute]i = 5 mM (intracellular)"}, "[12]": {"conditions": "[test solute]i = 45 mM (intracellular; 30 mM for some solutes due to solubility)"}, "[13]": {"conditions": "[test solute]i = 5 mM (injected)"}}, "note": "Like-named read-outs stand apart in the source and are kept apart here."}
{"substance": "PHFD [PD-4]", "values": [{"measurement": "Uptake of [3H]CQ (% non-expressing oocyte control), cis-inhibition", "setting": "[1]; [test solute] = 0.5 mM", "value": "100 ± 4.3 % non-expressing oocyte control"}, {"measurement": "Uptake of [3H]CQ (% non-expressing oocyte control), cis-inhibition", "setting": "[1]; [test solute] = 1 mM", "value": "100 ± 3.7 % non-expressing oocyte control"}, {"measurement": "Uptake of [3H]CQ (% non-expressing oocyte control), cis-inhibition", "setting": "[1]; [test solute] = 2 mM", "value": "100 ± 4.6 % non-expressing oocyte control"}, {"measurement": "Uptake of [3H]CQ (% PfCRT3D7 control), cis-inhibition", "setting": "[2]; [test solute] = 0.5 mM", "value": "98 ± 5.6", "unit": "% PfCRT3D7 control"}, {"measurement": "Uptake of [3H]CQ (% PfCRT3D7 control), cis-inhibition", "setting": "[2]; [test solute] = 1 mM", "value": "100 ± 5.5", "unit": "% PfCRT3D7 control"}, {"measurement": "Uptake of [3H]CQ (% PfCRT3D7 control), cis-inhibition", "setting": "[2]; [test solute] = 2 mM", "value": "99 ± 3.5", "unit": "% PfCRT3D7 control"}, {"measurement": "PfCRT-mediated [3H]CQ transport, cis-inhibition (% PfCRTDd2 control)", "setting": "[3]; [test solute] = 0.5 mM", "value": "56 ± 1.1", "unit": "% PfCRTDd2 control"}, {"measurement": "PfCRT-mediated [3H]CQ transport, cis-inhibition (% PfCRTDd2 control)", "setting": "[3]; [test solute] = 1 mM", "value": "42 ± 0.5", "unit": "% PfCRTDd2 control"}, {"measurement": "PfCRT-mediated [3H]CQ transport, cis-inhibition (% PfCRTDd2 control)", "setting": "[3]; [test solute] = 2 mM", "value": "17 ± 0.7", "unit": "% PfCRTDd2 control"}, {"measurement": "Uptake of [3H]CQ (% PfCRTEcu1110 control), cis-inhibition", "setting": "[4]; [test solute] = 0.5 mM", "value": "54 ± 3.1", "unit": "% PfCRTEcu1110 control"}, {"measurement": "Uptake of [3H]CQ (% PfCRTEcu1110 control), cis-inhibition", "setting": "[4]; [test solute] = 1 mM", "value": "38 ± 3.1", "unit": "% PfCRTEcu1110 control"}, {"measurement": "Uptake of [3H]CQ (% PfCRTEcu1110 control), cis-inhibition", "setting": "[4]; [test solute] = 2 mM", "value": "27 ± 0.8", "unit": "% PfCRTEcu1110 control"}, {"measurement": "PfCRT-mediated [3H]CQ transport, cis-inhibition (% PfCRTEcu1110 control)", "setting": "[4]; [test solute] = 0.5 mM", "value": "49 ± 2.1", "unit": "% PfCRTEcu1110 control"}, {"measurement": "PfCRT-mediated [3H]CQ transport, cis-inhibition (% PfCRTEcu1110 control)", "setting": "[4]; [test solute] = 1 mM", "value": "33 ± 1.5", "unit": "% PfCRTEcu1110 control"}, {"measurement": "PfCRT-mediated [3H]CQ transport, cis-inhibition (% PfCRTEcu1110 control)", "setting": "[4]; [test solute] = 2 mM", "value": "24 ± 1.1", "unit": "% PfCRTEcu1110 control"}, {"measurement": "[3H]CQ transport (% PfCRTEcu1110 control), cis-inhibition, PfCRTEcu1110", "setting": "[4]; [test solute] = 0.5 mM", "value": "15 ± 0.5", "unit": "% PfCRTEcu1110 control"}, {"measurement": "[3H]CQ transport (% PfCRTEcu1110 control), cis-inhibition, PfCRTEcu1110", "setting": "[4]; [test solute] = 1 mM", "value": "10 ± 0.1", "unit": "% PfCRTEcu1110 control"}, {"measurement": "[3H]CQ transport (% PfCRTEcu1110 control), cis-inhibition, PfCRTEcu1110", "setting": "[4]; [test solute] = 2 mM", "value": "8.0 ± 0.06", "unit": "% PfCRTEcu1110 control"}, {"measurement": "Uptake of [3H]CQ (% non-expressing oocyte control), trans-stimulation", "setting": "[5]; [test solute]i = 5 mM", "value": "98 ± 2.0 % non-expressing oocyte control"}, {"measurement": "Uptake of [3H]CQ (% non-expressing oocyte control), trans-stimulation", "setting": "[5]; [10]", "value": "99 ± 3.7 % non-expressing oocyte control"}, {"measurement": "Uptake of [3H]CQ (% PfCRT3D7 control), trans-stimulation", "setting": "[6]; [test solute]i = 5 mM", "value": "99 ± 3.6", "unit": "% PfCRT3D7 control"}, {"measurement": "Uptake of [3H]CQ (% PfCRT3D7 control), trans-stimulation", "setting": "[6]; [10]", "value": "100 ± 2.1", "unit": "% PfCRT3D7 control"}, {"measurement": "[3H]CQ transport (% PfCRT3D7 control), trans-stimulation, PfCRT3D7", "setting": "[6]; SEM", "value": "0.1 ± 0.02"}, {"measurement": "PfCRT-mediated [3H]CQ transport, trans-stimulation (% PfCRT3D7 control)", "setting": "[6]; [11]", "value": "97 ± 2.9", "unit": "% PfCRT3D7 control"}, {"measurement": "PfCRT-mediated [3H]CQ transport, trans-stimulation (% PfCRT3D7 control)", "setting": "[6]; [12]", "value": "98 ± 4.2", "unit": "% PfCRT3D7 control"}, {"measurement": "Uptake of [3H]CQ (% PfCRTDd2 control), trans-stimulation", "setting": "[7]; [test solute]i = 5 mM", "value": "102 ± 2.4", "unit": "% PfCRTDd2 control"}, {"measurement": "Uptake of [3H]CQ (% PfCRTDd2 control), trans-stimulation", "setting": "[7]; [10]", "value": "99 ± 2.9", "unit": "% PfCRTDd2 control"}, {"measurement": "PfCRT-mediated [3H]CQ transport, trans-stimulation (% PfCRTDd2 control)", "setting": "[7]; [11]", "value": "100 ± 4.2", "unit": "% PfCRTDd2 control"}, {"measurement": "PfCRT-mediated [3H]CQ transport, trans-stimulation (% PfCRTDd2 control)", "setting": "[7]; [12]", "value": "97 ± 2.8", "unit": "% PfCRTDd2 control"}, {"measurement": "[3H]CQ transport (% PfCRTDd2 control), trans-stimulation, PfCRTDd2", "setting": "[7]; [13]", "value": "100 ± 4.2", "unit": "% PfCRTDd2 control"}, {"measurement": "[3H]CQ transport (% PfCRTDd2 control), trans-stimulation, PfCRTDd2", "setting": "[7]; [10]", "value": "97 ± 2.8", "unit": "% PfCRTDd2 control"}, {"measurement": "Uptake of [3H]CQ (% PfCRTEcu1110 control), trans-stimulation", "setting": "[8]; [test solute]i = 5 mM", "value": "98 ± 1.4", "unit": "% PfCRTEcu1110 control"}, {"measurement": "Uptake of [3H]CQ (% PfCRTEcu1110 control), trans-stimulation", "setting": "[8]; [10]", "value": "100 ± 3.5", "unit": "% PfCRTEcu1110 control"}, {"measurement": "PfCRT-mediated [3H]CQ transport, trans-stimulation (% PfCRTEcu1110 control)", "setting": "[8]; [11]", "value": "96 ± 3.2", "unit": "% PfCRTEcu1110 control"}, {"measurement": "PfCRT-mediated [3H]CQ transport, trans-stimulation (% PfCRTEcu1110 control)", "setting": "[8]; [12]", "value": "98 ± 4.3", "unit": "% PfCRTEcu1110 control"}, {"measurement": "[3H]CQ transport (% PfCRTDd2 control), trans-stimulation, PfCRTEcu1110", "setting": "[8]; [13]", "value": "29 ± 1.4", "unit": "% PfCRTEcu1110 control"}, {"measurement": "[3H]CQ transport (% PfCRTDd2 control), trans-stimulation, PfCRTEcu1110", "setting": "[8]; [10]", "value": "30 ± 1.6", "unit": "% PfCRTEcu1110 control"}, {"measurement": "Uptake of [3H]CQ (% PfNT1 control), trans-stimulation", "setting": "[9]; [test solute]i = 5 mM", "value": "100 ± 3.5", "unit": "% PfNT1 control"}, {"measurement": "Uptake of [3H]CQ (% PfNT1 control), trans-stimulation", "setting": "[9]; [10]", "value": "98 ± 2.2", "unit": "% PfNT1 control"}]}
